Experimental data from patent EP4733301A1 (priority 2023, dated 2025).

What was measured:
[1] = X-ray-induced release of coumarin reporter 7-Deacca from Compounds 1-9 in phosphate buffer (UPLC-MS); type: physicochemical; settings: for reactivity to radiation reduction: ortho-/para-substituted esters versus meta-substituted ones (Compounds 2, 5, 8); for release efficiency in KNO3 solution relative to control: 10 mM KNO3 added; for release efficiency (in words): NAP esters
Protocol: (§1) Pretreated solution (approx. 1-2 mL) was sealed in glass vials with rubber stoppers and metal caps. All tubular radiation experiments were pretreated using the freeze-thaw method to remove dissolved oxygen from the solution. The solution was frozen, then vacuum was applied for several minutes until thawed to room temperature.
X-ray irradiation was performed using an X-ray generator (RS2000 Pro 225, 225 kV, 17.7 mA; Rad Source Technologies, Inc).
(§2) Tubes were irradiated with X-rays, with a total dose of 0-60 Gy, at a rate of 2 Gy/min. Cells were irradiated with X-rays at different doses at a rate of 2 Gy/min.
• 1. Standard preparation and calibration curves. The standard (coumarin, MeRho or MMAE) was dissolved in DMSO solution to make a 10 mM stock solution. The stock was diluted with deionized water to obtain solutions of suitable concentration gradients. These standard solutions were analyzed by UPLC-MS to generate calibration curves for the respective standard compounds. The peak areas of the target compounds were within the linear range of the curves. The relative standard deviation for duplicate injections of each standard solution was less than 5.0%. • 2. Analysis and calculation. After different treatments, the reaction mixtures were analyzed by ultra-performance liquid chromatography-mass spectrometry. The amount of cargo was calculated as equivalents of their respective external standard.
(§3) As a representative example, the detailed procedure for X-ray-induced reduction of Compound 1 is described below. A stock solution of Compound 1 (10 mM in DMSO) was diluted in PB (0.02 M, pH 7.4) to a final concentration of 10 µM. Solutions were deoxygenated using the aforementioned deoxygenation step prior to X-ray irradiation from 0 to 60 Gy. Reaction mixtures were analyzed using UPLC and a fluorescence spectrometer, and amount of product release was quantified via standard curves.
(§4) The elution program for Compounds 1-9 and NAPC-MeRho was Method a: H2O + 5% ACN (0 min)-95% H2O + 5% ACN (0.2 min)-5% H2O + 95% ACN (2.8 min)-5% H2O + 95% ACN (2.9 min)-95% H2O + 5% ACN (3.0 min)-95% H2O + 5% ACN (4.0 min). Injection volume: 10 µL.
10 mM KNO3 was added to the radiation system of Compound 1 (10 µM, in PB, pH 7.4) Reactivity test (10 µM, 0.1% DMSO): Determination of 7-Deacca release in PB (20 mM, pH 7.4) after deoxygenation and 60 Gy X-ray irradiation. Encouragingly, UPLC-MS detected coumarin release (FIG. 32), with a release efficiency of 33.5 ± 9.1% (FIG. 4), resulting in 55.8 nM/Gy.
7-Deacca was designed to be protected by a series of molecules Compounds 2-9 with pyridyl, quinolinyl, and N-methylpyridyl groups. Stock solutions of Compounds 2-9 (10 mM in DMSO) were diluted in PB (10 µM, 0.1% DMSO), then irradiated with 60 Gy X-rays, and analyzed by UPLC-MS to determine the yield of free 7-Deacca (FIG. 35).
10 mM HCOONa or KNO3 was added to the radiation system of Compound 7 (10 µM, in PB, pH 7.4). […] It can be explained that radicalized HCOONa in water reacts with ·OH and hydrogen radicals (·H) to generate carboxylate radicals […], which is another reducing agent with a standard electrode potential of -1.90 V, which may also be a possible explanation for the difference in its radiation reduction efficiency. Compared to the quinolinyl moiety with higher electron density (lower reduction potential), the positive charge on the pyridyl moiety with lower electron density (higher reduction potential) has higher affinity for the negatively charged e^-aq, resulting in the highest radiation reduction efficiency among them for the pyridyl moiety.

HT1080-FAP cells = assay: Confocal fluorescence imaging of radiation-induced MeRho release in cells; type: cell-based, Human; settings: 10 µM, hypoxic conditions, 30 minutes, no radiation
Protocol: (§5) Typically, cells were seeded at a density of 2×10^5 cells/mL in 35-mm confocal dishes and cultured under hypoxic conditions in an incubator containing 5% CO2 at 37 °C for 24 hours. A stock solution of NAPC-MeRho (10 mM) was prepared in DMSO. Attached cells were washed twice with PBS before adding the fluorescence probe at a final concentration of 10 µM in 1 mL deoxygenated HBSS. After hypoxic incubation at 37 °C for 30 min, they were subjected to X-ray irradiation for […] (0, 4, 8, 16 Gy), and fluorescence images were taken with a laser scanning confocal microscope (Nikon, Japan). Excitation wavelength was 488 nm, fluorescence emission window was 500-530 nm. For imaging quantification, all cells on the image were set as regions of interest, and fluorescence intensity was measured using Nikon imaging software (version 4.0).
(§6) Subsequent irradiation with 4, 8, and 16 Gy presented the appearance of green fluorescence from MeRho release (FIG. 16, right lanes), with fluorescence intensity positively correlated with radiation dose (FIG. 17).

[2] = type: physicochemical
Protocol: 20 µM NAPC-MeRho was mixed with an equal volume of 2 mM sodium ascorbate solution, incubated and detected at different time points using a fluorescence spectrometer and UPLC-MS. Stability test results in cysteine and γ-glutathione solutions were the same.
(§7) The inventors performed proof-of-concept for a radiation-responsive fluorescent probe NAPC-MeRho (FIG. 13), designed for quantitative analysis of radiation-induced release. The NAPC linker selectively responds to e^-aq generated by X-rays, where C-O bond cleavage of the carbamate occurs, followed by decarboxylation to release fluorescent MeRho (FIG. 13). Under physiological conditions, irradiating 10 µM NAPC-MeRho with a gradient dose from 0 to 60 Gy caused fluorescence intensity to increase in a linear manner (FIG. 14 and FIG. 15), and UPLC spectra determined a G-value for MeRho release of 140 nM/Gy (FIG. 15). To test whether the radiation reduction reaction can occur in living cells without interference, stability to biological reducing agents and cytotoxicity to different cell lines were evaluated. […] VcNa at pH 7.4, and cell viability with 10 µM NAPC-MeRho was greater than 95%.

U87MG cells = assay: Confocal fluorescence imaging of radiation-induced MeRho release in cells; type: cell-based; settings: 10 µM, hypoxic conditions, 30 minutes, no radiation
Protocol: as §5, §6

[3] = X-ray-induced MeRho release from NAPC-MeRho in PB (fluorescence, UPLC); type: physicochemical; settings: 10 µM, gradient dose 0 to 60 Gy
Protocol: as §3, §4
The inventors performed proof-of-concept for a radiation-responsive fluorescent probe NAPC-MeRho (FIG. 13), designed for quantitative analysis of radiation-induced release. […] Under physiological conditions, irradiating 10 µM NAPC-MeRho with a gradient dose from 0 to 60 Gy caused fluorescence intensity to increase in a linear manner (FIG. 14 and FIG. 15), and UPLC spectra determined a G-value for MeRho release of 140 nM/Gy (FIG. 15). To test whether the radiation reduction reaction can occur in living cells without interference, stability to biological reducing agents and cytotoxicity to different cell lines were evaluated. […]

[4] = tested on: 4T1-FAP, HT1080-FAP and U87-MG cells; type: cell-based; settings: 10 µM NAPC-MeRho, different cell lines
Protocol: as §7
Cell viability was assessed using CCK-8 assay. Each experiment was performed in triplicate. […] Incubated at 37 °C, 5% CO2 for 2 hours, absorbance was measured at 450 nm. The absorbance of treated cells was compared to that of the control group, whose viability was set at 100%.

4T1-FAP tumors = assay: Radiation activation of NAPC-MeRho in tumors, fluorescence of tumor sections; type: in vivo, BALB/c mice; settings: 20 µL of 100 µM locally injected
Protocol: Then, when examining the reduction of NAPC-MeRho in tumor-bearing mice, 20 µL of 100 µM NAPC-MeRho in PBS was locally injected into 4T1-FAP tumors, and X-ray therapy of 4 Gy was administered 30 minutes post-injection. Due to limited green light penetration, tumors were harvested and quickly frozen, and fluorescence intensity was quantified via confocal imaging. […] Furthermore, the MeRho signal was statistically greater than the non-irradiated group (FIG. 19), providing conclusive evidence that radiation reduction reactions are feasible in vivo.

4T1-FAP cells = assay: Confocal fluorescence imaging of radiation-induced MeRho release in cells; type: cell-based, Mouse; settings: 10 µM
Protocol: as §5, §6

[5] = Competition reaction of Compound 10 with prior-art RPGs (Compounds 11, 12, 13) under 60 Gy X-ray; type: physicochemical; settings: each component 10 µM in PB pH 7.4, deoxygenated, versus Compounds 11, 12, 13
Protocol: (§8) Method B was used for elution of Compound 10, mixtures of Compound 7 with other RPGs, and mixtures of Compound 10 with other rpg: 95% H2O + 5% ACN (0 min)-95% H2O + 5% ACN (0.2 min)-70% H2O + 30% ACN (3.0 min)-70% H2O + 30% ACN (3.6 min)-95% H2O + 5% ACN (3.7 min)-95% H2O + 5% ACN (5.0 min). Injection volume: 10 µL.
The inventors mixed the reported RPGs with Compound 10, providing solutions of [10+11], [10+12], [10+13], respectively (each component: 10 µM in PB, pH 7.4). The solutions were deoxygenated and irradiated with 60 Gy X-rays, and their release efficiencies were analyzed by UPLC-MS (FIG. 11) and summarized in FIG. 12. The lower part of the bars and the upper part of the bars represent the activation ratio of Compound 10 and each competing component in the irradiation system, respectively.

[6] = X-ray-induced AMC release from Compound 10 in PB (UPLC); type: physicochemical; settings: 10 µM, 0.02 M PB pH 7.4, 0-60 Gy
Protocol: as §1, §2, §3, §8
The inventors synthesized Compound 10 (NAPC-AMC) containing NAP-protected 7-amino-4-methylcoumarin (AMC). […]

[7] = 10 µM, 20 Gy irradiation (control conditions)

## CCN(CC)c1ccc2cc(C(=O)OCc3ccnc4ccccc34)c(=O)oc2c1 [Compound 4, Quinolin-4-ylmethyl-7-(diethylamino)-2-oxo-2H-chromene-3-carboxylate]
[1]; 60 Gy X-ray
  reactivity to radiation reduction: more reactive

## COc1ccc2c(c1)Oc1cc(NC(=O)OCc3cc[n+](C)cc3)ccc1C21OC(=O)c2ccccc21 (stereo not shown) [NAPC-MeRho]
HT1080-FAP cells
  spontaneous release of MeRho: no spontaneous release of MeRho
[2]; 10 µM, 100 eq. VcNa, pH 7.4
  stability to reducing agent VcNa: highly stable
[2]; compared with result in sodium ascorbate solution
  stability in cysteine and γ-glutathione solutions: the same
U87MG cells
  spontaneous release of MeRho: no spontaneous release of MeRho
[3]
  G-value for MeRho release: 140 nM/Gy
[4]
  cell viability: greater than 95%
4T1-FAP tumors; 4 Gy X-ray 30 minutes post-injection
  fluorescence signal in tumor sections: significantly increased
4T1-FAP tumors; NAPC-MeRho only
  fluorescence signal in tumor sections: limited fluorescence signal
4T1-FAP cells; hypoxic conditions, 30 minutes, no radiation
  spontaneous release of MeRho: no spontaneous release of MeRho
4T1-FAP cells; 4 Gy radiation
  increase of fluorescence intensity: 14.4 fold
4T1-FAP cells; 8 Gy radiation
  increase of fluorescence intensity: 27.9 fold
4T1-FAP cells; 16 Gy radiation
  increase of fluorescence intensity: 54.5 fold

## Cc1cc(=O)oc2cc(NC(=O)OCc3cc[n+](C)cc3)ccc12 [Compound 10]
[5]
  additional activation versus previously reported structures in competition: 20-40%
[6]
  G (AMC release versus radiation dose): 145 nM/Gy

## CCN(CC)c1ccc2cc(C(=O)OCc3cc[n+](C)cc3)c(=O)oc2c1 [Compound 7, (4-((7-(diethylamino)-2-oxo-2H-chromene-3-carbonyl)oxy)methyl)-1-methylpyridin-1-ium]
[1]; 10 µM, 20 Gy + 10 mM HCO2Na
  coumarin release efficiency: 53.8%
[1]; 10 µM, 20 Gy + 10 mM KNO3
  coumarin release efficiency: 0.0%
[1]; [7]
  coumarin release efficiency: 27.6%
[1]; 10 mM HCOONa added, 10 µM in PB pH 7.4
  reduction yield on addition of HCOONa: approximately doubled
[1]; 10 µM in PB pH 7.4
  release efficiency in KNO3 solution relative to control: significantly reduced
[1]; 60 Gy X-ray
  release efficiency (in words): high release efficiencies
  reactivity to radiation reduction: more reactive
[1]; X-ray dose gradient 0 to 60 Gy, UPLC
  G-value (release of the reporter molecule): 140 nM/Gy

## CCN(CC)c1ccc2cc(C(=O)OCc3ccncc3)c(=O)oc2c1 [Compound 1, Pyridin-4-ylmethyl-7-(diethylamino)-2-oxo-2H-chromene-3-carboxylate]
[1]; 10 µM, 0.1% DMSO, PB 20 mM pH 7.4, deoxygenated, 60 Gy X-ray
  release efficiency (coumarin / 7-Deacca release): 33.5 ± 9.1%
[1]; 10 µM, 20 Gy + 10 mM HCO2Na
  coumarin release efficiency: 27.3%
[1]; 10 µM, 20 Gy + 10 mM KNO3
  coumarin release efficiency: 1.3%
[1]; [7]
  coumarin release efficiency: 16.7%
[1]; 10 µM in PB pH 7.4
  release efficiency in KNO3 solution relative to control: significantly reduced
[1]; from release efficiency at 60 Gy, 10 µM in PB pH 7.4
  release per radiation dose: 55.8 nM/Gy
[1]; 60 Gy X-ray
  reactivity to radiation reduction: more reactive

## CCN(CC)c1ccc2cc(C(=O)OCc3ccccn3)c(=O)oc2c1 [Compound 3, Pyridin-2-ylmethyl-7-(diethylamino)-2-oxo-2H-chromene-3-carboxylate]
[1]; 60 Gy X-ray
  reactivity to radiation reduction: more reactive

## CCN(CC)c1ccc2cc(C(=O)OCc3ccc4ccccc4n3)c(=O)oc2c1 [Compound 6, Quinolin-2-ylmethyl-7-(diethylamino)-2-oxo-2H-chromene-3-carboxylate]
[1]; 60 Gy X-ray
  reactivity to radiation reduction: more reactive

## CCN(CC)c1ccc2cc(C(=O)OCc3cccc[n+]3C)c(=O)oc2c1 [Compound 9, (2-((7-(diethylamino)-2-oxo-2H-chromene-3-carbonyl)oxy)methyl)-1-methylpyridin-1-ium]
[1]; 60 Gy X-ray
  release efficiency (in words): high release efficiencies
  reactivity to radiation reduction: more reactive
